According to publication PMC11191095, “QSAR Reveals Decreased Lipophilicity of Polar Residues Determines the Selectivity of Antimicrobial Peptide Activity” (ACS Omega, 2024):
Where a SMILES comes first, the peptide text is derived from it.

Legend:
Experiment in all cases: microbe, parasite or virus in culture
[1] = test system: E. coli LEC001; type: cell-based, Escherichia coli
Protocol: (§1) Antimicrobial activity was evaluated against a panel of 18 pathogens consisting of eight Gram-negative strains (E. coli NCTC 12923, E. coli LEC001, Pseudomonas aeruginosa PAO1, P. aeruginosa NCTC 13437, Acinetobacter baumannii ATCC 17978, A. baumannii AYE, Klebsiella pneumoniae M6, K. pneumoniae NCTC 13368), four Gram-positive strains (Staphylococcus aureus ATCC 9144, S. aureus NCTC 13616, S. aureus USA300, S. aureus 1199B) and six fungi (Candida auris TDG 1912, C. albicans NCPF 8018, C. krusei NCPF 3876, C. tropicalis NCPF 8760, and C. parapsilosis NCPF 3209). Pathogens were grown in noncation adjusted Mueller Hinton broth (MHB, for bacteria) or Roswell Park Memorial Institute (RPMI 1640) + 2% glucose (for fungi) at 37 °C with 180 rpm shaking and maintained on solid media (tryptic soy agar for bacteria and Sabouraud dextrose agar for fungi). For an antibiogram, see Suppl.
(§2) The 46 peptides were serially diluted (128 to 2 μg/mL) in media down polypropylene 96-well plates. Bacteria or fungi, diluted from an overnight culture to an OD600 of 0.01, were added to the serially diluted peptides at a 1:1 ratio resulting in a starting cell density of ∼5 × 10^5 CFU/mL. Plates were incubated at 37 °C for 20 h, and the optical density was determined spectrophotometrically at 600 nm. Minimum inhibition concentrations (MICs) were determined from a minimum of three biological repeats and are reported in μg/mL as well as μM. […] The MIC50 or MIC90 is defined as the lowest peptide concentration that results in 50% or 90% growth inhibition over a 20 h treatment period, respectively.

[2] = test system: E. coli NCTC 12923; type: cell-based, Escherichia coli
Protocol: as §1, §2

[3] = test system: P. aeruginosa NCTC 13437; type: cell-based, Pseudomonas aeruginosa
Protocol: as §1, §2

[4] = test system: A. baumannii ATCC 17978; type: cell-based, Acinetobacter baumannii
Protocol: as §1, §2

[5] = test system: A. baumannii AYE; type: cell-based, Acinetobacter baumannii; conditions: 20 h
Protocol: as §1, §2

[6] = test system: K. pneumoniae M6; type: cell-based, Klebsiella pneumoniae
Protocol: as §1, §2

[7] = test system: K. pneumoniae NCTC 13368; type: cell-based, Klebsiella pneumoniae
Protocol: as §1, §2

[8] = test system: S. aureus (MRSA) NCTC 13616; type: cell-based, Staphylococcus aureus
Protocol: as §1, §2

[9] = test system: S. aureus (MRSA) USA300; type: cell-based, Staphylococcus aureus; conditions: USA300, 20 h
Protocol: as §1, §2

[10] = test system: S. aureus (MSSA) ATCC 9144; type: cell-based, Staphylococcus aureus; conditions: ATCC 9144, 20 h
Protocol: as §1, §2

[11] = test system: C. auris TDG 1912; type: cell-based, Candida auris; conditions: TDG 1912, 20 h
Protocol: as §1, §2

[12] = test system: C. albicans NCPF 3281; type: cell-based; conditions: NCPF 3281, 20 h
Protocol: as §1, §2

[13] = test system: C. glabrata NCPF 8018; type: cell-based; conditions: NCPF 8018, 20 h
Protocol: as §1, §2

[14] = test system: C. krusei NCPF 3876; type: cell-based; conditions: NCPF 3876, 20 h
Protocol: as §1, §2

[15] = test system: C. parapsilosis NCPF 3209; type: cell-based; conditions: NCPF 3209, 20 h
Protocol: as §1, §2

[16] = test system: C. tropicalis NCPF 8760; type: cell-based; conditions: NCPF 8760, 20 h
Protocol: as §1, §2

[17] = test system: P. aeruginosa PAO1; type: cell-based, Pseudomonas aeruginosa; conditions: P. aeruginosa PAO1 (S); MHB, 37 °C, 20 h, OD600; min. three biological repeats
Protocol: as §1, §2

| Compound | Modal MIC ([2]; NCTC 12923, 20 h) | Modal MIC ([4]; ATCC 17978, 20 h) | Modal MIC ([5]; AYE) | Modal MIC [10] | Modal MIC50 [12] | Modal MIC90 [12] | Modal MIC50 [13] | Modal MIC90 [13] | Modal MIC50 [14] | Modal MIC90 [14] | Modal MIC50 [15] | Modal MIC90 [15] | Modal MIC50 [16] | Modal MIC90 [16] | further results |
| --- | --- | --- | --- | --- | --- | --- | --- | --- | --- | --- | --- | --- | --- | --- | --- |
| CC[C@H](C)[C@H](NC(=O)[C@H](CCCCN)NC(=O)[C@H](CC(C)C)NC(=O)CNC(=O)[C@H](C)NC(=O)[C@H](CCCCN)NC(=O)[C@H](CC(C)C)NC(=O)[C@H](C)NC(=O)[C@H](CCCCN)NC(=O)CNC(=O)[C@H](CC(C)C)NC(=O)[C@H](Cc1ccccc1)NC(=O)[C@H](CO)NC(=O)[C@H](C)NC(=O)[C@H](CC(C)C)NC(=O)CN)C(=O)NCC(=O)N[C@@H](CO)C(=O)N[C@@H](Cc1c[nH]cn1)C(=O)N[C@@H](CC(C)C)C(=O)N[C@@H](CC(C)C)C(=O)NCC(=O)NCC(=O)N[C@@H](C)C(=O)N1CCC[C@H]1C(=O)N[C@@H](CCC(N)=O)C(=O)O [CPF-P2] (H-GLASFLGKALKAGLKIGSHLLGGAPQ-OH) | 2.9 µM | 1.4 µM | 2.9 µM | 1.4 µM | > 46 µM | > 46 µM | > 46 µM | > 46 µM | 23 µM | 23 µM | > 46 µM | > 46 µM | 5.8 µM | 5.8 µM | Modal MIC ([1]; LEC001, 20 h): 5.8 µM; Modal MIC ([3]; NCTC 13437, 20 h): 46 µM; Modal MIC ([6]; M6, 20 h): 46 µM; Modal MIC ([7]; NCTC 13368, 20 h): 46 µM; Modal MIC ([8]; NCTC 13616, 20 h): 1.4 µM; Modal MIC [9]: 2.9 µM; Modal MIC50 [11]: > 46 µM; Modal MIC90 [11]: > 46 µM |
| CC[C@H](C)[C@H](NC(=O)CNC(=O)[C@H](CCCNC(=N)N)NC(=O)[C@@H](N)Cc1c[nH]c2ccccc12)C(=O)N[C@@H](CCCNC(=N)N)C(=O)NCC(=O)N[C@@H](Cc1ccc(O)cc1)C(=O)N[C@@H](CCCCN)C(=O)NCC(=O)NCC(=O)N[C@@H](Cc1ccc(O)cc1)C(=O)N[C@H](C(=O)NCC(=O)N[C@@H](CCCNC(=N)N)C(=O)N[C@@H](Cc1ccccc1)C(=O)N[C@@H](CCCCN)C(=O)N[C@@H](CCC(N)=O)C(=O)N[C@H](C(=O)N[C@@H](CCCCN)C(=O)N[C@@H](Cc1ccc(O)cc1)C(N)=O)[C@@H](C)O)[C@@H](C)O [W-OmB-Ca] (H-WRGIRGYKGGYTGRFKQTKY-NH2) | 52.5 µM | 26.2 µM | 13.1 µM | 52.5 µM | > 52.5 µM | > 52.5 µM | > 52.5 µM | > 52.5 µM | > 52.5 µM | > 52.5 µM | > 52.5 µM | > 52.5 µM | > 52.5 µM | > 52.5 µM |  |
| CC[C@H](C)[C@H](NC(=O)CNC(=O)[C@H](CO)NC(=O)[C@@H](N)Cc1c[nH]c2ccccc12)C(=O)N[C@@H](CCCNC(=N)N)C(=O)NCC(=O)N[C@@H](Cc1ccc(O)cc1)C(=O)N[C@@H](CCCCN)C(=O)NCC(=O)NCC(=O)N[C@@H](Cc1ccc(O)cc1)C(=O)N[C@@H](CCCCN)C(=O)NCC(=O)N[C@@H](CC(C)C)C(=O)N[C@@H](Cc1ccccc1)C(=O)N[C@@H](CCCCN)C(=O)N[C@@H](CCC(N)=O)C(=O)N[C@H](C(=O)N[C@@H](CC(N)=O)C(=O)N[C@@H](Cc1ccc(O)cc1)C(N)=O)[C@@H](C)O [W-OmC-Ca] (H-WSGIRGYKGGYKGLFKQTNY-NH2) | 54.3 µM | 54.3 µM | 54.3 µM | 54.3 µM | > 54.3 µM | > 54.3 µM | > 54.3 µM | > 54.3 µM | > 54.3 µM | > 54.3 µM | > 54.3 µM | > 54.3 µM | > 54.3 µM | > 54.3 µM |  |
| Colistin [reference compound] |  |  |  |  |  |  |  |  |  |  |  |  |  |  | Modal MIC ([1]; E. coli LEC001 (R), MHB, 37 °C, 20 h, OD600, min. three biological repeats): 2 µg/mL; Modal MIC ([2]; E. coli NCTC 12923 (S), MHB, ~5×10^5 CFU/mL, 37 °C, 20 h, OD600, min. three biological repeats): 0.0625 µg/mL; Modal MIC ([3]; P. aeruginosa NCTC 13437 (R), MHB, 37 °C, 20 h, OD600, min. three biological repeats): 4 µg/mL; Modal MIC [17]: 2 µg/mL; Modal MIC ([4]; A. baumannii ATCC 17978 (S), MHB, 37 °C, 20 h, OD600, min. three biological repeats): 1 µg/mL; Modal MIC ([5]; A. baumannii AYE (R), MHB, 37 °C, OD600, min. three biological repeats): 1 µg/mL; Modal MIC ([6]; K. pneumoniae M6 (S), MHB, 37 °C, 20 h, OD600, min. three biological repeats): 2 µg/mL; Modal MIC ([7]; K. pneumoniae NCTC 13368 (R), MHB, 37 °C, 20 h, OD600, min. three biological repeats): 1 µg/mL; Modal MIC ([8]; S. aureus (MRSA) NCTC 13616 (R), MHB, 37 °C, 20 h, OD600, min. three biological repeats): > 128 µg/mL |
| CC[C@H](C)[C@H](NC(=O)CNC(=O)[C@H](CCCCN)NC(=O)[C@H](Cc1c[nH]c2ccccc12)NC(=O)[C@H](Cc1c[nH]c2ccccc12)NC(=O)[C@@H](N)Cc1c[nH]c2ccccc12)C(=O)N[C@@H](CCCNC(=N)N)C(=O)NCC(=O)N[C@@H](Cc1ccc(O)cc1)C(=O)N[C@@H](CCCCN)C(=O)NCC(=O)NCC(=O)N[C@@H](Cc1ccc(O)cc1)C(=O)N[C@@H](CCCCN)C(=O)NCC(=O)N[C@@H](C)C(=O)N[C@@H](Cc1ccccc1)C(=O)N[C@@H](CCCCN)C(=O)N[C@@H](CCC(N)=O)C(=O)N[C@H](C(=O)N[C@@H](CCCCN)C(=O)N[C@@H](Cc1ccc(O)cc1)C(N)=O)[C@@H](C)O [W3(Os-C)a] (H-WWWKGIRGYKGGYKGAFKQTKY-NH2) | 23.5 µM | 11.7 µM | 5.9 µM | 11.7 µM | > 46.9 µM | > 46.9 µM | > 46.9 µM | > 46.9 µM | > 46.9 µM | > 46.9 µM | > 46.9 µM | > 46.9 µM | > 46.9 µM | > 46.9 µM |  |
